We go through five compounds from patent publication US4411834A, “Preparation of II-deoxy anthracycline antibiotics” (Farmitalia Carlo Erba, S.p.A., priority 1978, dated 1983).

The nature of data set [1]: Toxic deaths in leukemia-bearing mice. Type of data set: in vivo. The settings on record: for Toxic deaths: intraperitoneally on day 1, macroscopic autopsy findings. The procedure: (§1) The new glycosides were tested against HeLa cells in vitro (time of exposure to the drugs: 24 hours), and on L 1210 and P 388 leukemia in mice in comparison with daunomycin.
A further data set relates to HeLa cells. The data set can be described thus: Effect on HeLa cells viability in vitro. Type of data set: cell-based. The settings on record: Homo sapiens; for activity at 0.05 µg/mL: dose 50 ng/ml; for activity at 0.1 µg/mL: dose 100 ng/ml; for activity at 0.2 µg/mL: dose 200 ng/ml; for activity at 0.4 µg/mL: dose 400 ng/ml. The procedure: as §1
^(a) HeLa cells were exposed to the drugs for 24 hours, then plated.
Number of colonies was evaluated 5 days later.
^(b) % over untreated controls.

The next data set has as its system P 388 leukemia. The data set can be described thus: Effect against P 388 leukemia in mice. Format: in vivo. The procedure: as §1
^(a) Mice were treated intraperitoneally on day 1 after tumor cell

The subject of data set [2] is Staphylococcus aureus 209 P. As to the kind of experiment: MIC, standard tube dilution procedure. Format: cell-based. Particulars: in vitro. The procedure:
(§2) The "in vitro" minimum inhibitory concentrations (MIC) of glycosides A, B, C and D were determined for certain microorganisms using the standard tube dilution procedure and are reported in Table 6.

Another data set concerns Escherichia coli B. The data set can be described thus: MIC, standard tube dilution procedure. The settings on record: in vitro. Format: cell-based. The procedure:
as §2

Another data set has as its system Sarcina lutea ATCC 9341. As to the kind of experiment: MIC, standard tube dilution procedure. Type of data set: cell-based. Particulars: Micrococcus luteus, ATCC9341, in vitro. The procedure:
as §2

Data set [3] has as its system Bacillus subtilis ATCC 6633. As to the kind of experiment: MIC, standard tube dilution procedure. Type of data set: cell-based. The settings on record: ATCC6633, in vitro. The procedure: as §2
Data set [4] deals with Staphylococcus aureus 153. The data set can be described thus: MIC, standard tube dilution procedure. The settings on record: in vitro. Type of data set: cell-based. The procedure:
as §2

Where [5] appears, read: 24 h, read-out: No. of colonies, % over untreated controls.
Setting [6] is: 24 h, HeLa cells, 24 hours exposure, colonies evaluated 5 days later (Table 7), read-out: ID50 (the source's name).
The mark [7] stands for this setting: 24 h, HeLa cells, 24 hours exposure, read-out: ID50 (the source's name).
Where [8] appears, read: 24 hours exposure, read-out: No. of colonies, % over untreated controls.

In brackets after ≈: the same amount, converted by molar mass. Where two headings read alike, the source gives them in different places.

For the compound `COc1cccc2c1C(=O)c1c(O)c3c(c(O)c1C2=O)C[C@@](O)(C(C)=O)C[C@@H]3O[C@H]1C[C@H](N)[C@H](O)[C@H](C)O1` [Daunomycin, reference compound], the Toxic deaths in data set [1] (6.6 mg/kg) was 14/26. The IC50 in the data set on HeLa cells (24 h, read-out: ID50) was 0.006 to 0.007 mg/L (≈ 0.0114 to 0.0133 µM). In the data set on HeLa cells (setting [5]), the activity at 0.00312 µg/mL fell in the range of 71 to 80% and the activity at 0.00625 µg/mL is 48 to 66%.
As a reminder, the MIC is the least concentration at which growth counts as inhibited. Lower therefore signals greater potency. Take `COc1cccc2c1C(=O)c1c(cc3c(c1O)[C@@H](O[C@H]1C[C@H](N)[C@H](O)[C@H](C)O1)C[C@](O)(C(=O)CO)C3)C2=O` [Glycoside A, 11-deoxyadriamycin]: the “Antitumor activity compared with daunomycin (in words)” value in the data set with P 388 leukemia (at the tolerated dose) is listed as “greater than that of daunomycin”. For the same compound, the “Activity against P 338 leukemia (in words)” value with P 388 leukemia (dose of 66 mg/kg) is reported as “active”. The MIC is 125 mg/L (≈ 237 µM) in data set [2]; 50 mg/L (≈ 94.8 µM) with Escherichia coli B; 100 mg/L (≈ 190 µM) in the data set on Sarcina lutea ATCC 9341; 100 mg/L (≈ 190 µM) in data set [3]; 500 mg/L (≈ 948 µM) in data set [4]. The “Toxicity (in words)” value in data set [1] (dose of 100 mg/kg, mice) is recorded as “toxic”. Further, the IC50 was 0.105 mg/L (≈ 0.199 µM) in the data set on HeLa cells (setting [6]) and 0.1 mg/L (≈ 0.19 µM) in the data set with HeLa cells (setting [7]). Moreover, in the data set on HeLa cells (dose 25 ng/ml, 24 hours exposure, read-out: No. of colonies, % over untreated controls), the activity at 0.025 µg/mL came to 74%. For the same compound, the activity at 0.05 µg/mL with HeLa cells (setting [8]) stood at 73%. Further, the activity at 0.1 µg/mL in the data set with HeLa cells (setting [8]) came to 63%. In addition, the activity at 0.2 µg/mL in the data set on HeLa cells (setting [8]) was determined as 1%.
Consider `COc1cccc2c1C(=O)c1c(cc3c(c1O)[C@@H](O[C@H]1C[C@H](N)[C@H](O)[C@H](C)O1)C[C@](O)(C(C)O)C3)C2=O` (stereo partly drawn) [Glycoside B, 11-deoxy-13-dihydrodaunomycin], for which the MIC in data set [2] came out at 1000 mg/L (≈ 1950 µM); in the data set on Escherichia coli B, 100 mg/L (≈ 195 µM); in the data set with Sarcina lutea ATCC 9341, 100 mg/L (≈ 195 µM); in data set [3], 100 mg/L (≈ 195 µM); in data set [4], 1000 mg/L (≈ 1950 µM). Further, in data set [1] (500 mg/kg), the Toxic deaths was 2/2. Moreover, the IC50 with HeLa cells (setting [7]) was found to be 0.44 mg/L (≈ 0.857 µM). For the same compound, in the data set on HeLa cells (setting [8]), the activity at 0.4 µg/mL came out at 66%. For the same compound, the activity at 0.8 µg/mL with HeLa cells (dose 800 ng/ml, 24 hours exposure, read-out: No. of colonies, % over untreated controls) came out at 20%. In addition, the activity at 1.6 µg/mL in the data set on HeLa cells (dose 1600 ng/ml, 24 hours exposure, read-out: No. of colonies, % over untreated controls) was 0%.
For `COc1cccc2c1C(=O)c1c(cc3c(c1O)[C@@H](O[C@H]1C[C@H](N)[C@H](O)[C@H](C)O1)C[C@](O)(C(C)=O)C3)C2=O` [Glycoside C, 11-deoxydaunomycin], the MIC in data set [2] turned out to be 62 mg/L (≈ 121 µM); in the data set on Escherichia coli B it was 25 mg/L (≈ 48.9 µM); against Sarcina lutea ATCC 9341, 12.5 mg/L (≈ 24.4 µM); in data set [3], 50 mg/L (≈ 97.7 µM); in data set [4], 250 mg/L (≈ 489 µM). Also, the Toxic deaths in data set [1] (100 mg/kg) is given as 3/8; in data set [1] (150 mg/kg), 3/19. Besides, the IC50 with HeLa cells (setting [6]) stood at 0.054 mg/L (≈ 0.106 µM); with HeLa cells (setting [7]), 0.05 mg/L (≈ 0.0977 µM). Besides, in the data set on HeLa cells (setting [8]), the activity at 0.05 µg/mL was 54%. Also, the activity at 0.1 µg/mL in the data set with HeLa cells (setting [8]) is 44%. Moreover, the activity at 0.2 µg/mL with HeLa cells (setting [8]) amounted to 3%.
For `CC[C@]1(O)Cc2cc3c(c(O)c2[C@@H](O[C@H]2C[C@H](N)[C@H](O)[C@H](C)O2)C1)C(=O)c1c(OC)cccc1C3=O` [Glycoside D, 11-deoxy-13-deoxo-daunomycin], the MIC in data set [2] was found to be 250 mg/L (≈ 502 µM); in the data set with Escherichia coli B, 50 mg/L (≈ 100 µM); against Sarcina lutea ATCC 9341 it was 25 mg/L (≈ 50.2 µM); in data set [3] it was 100 mg/L (≈ 201 µM); in data set [4], 1000 mg/L (≈ 2010 µM). The Toxic deaths in data set [1] (125 mg/kg) and in data set [1] (250 mg/kg) was 5/5 each time. Also, the IC50 in the data set with HeLa cells (setting [7]) was 0.22 mg/L (≈ 0.442 µM). For the same compound, in the data set with HeLa cells (setting [8]), the activity at 0.1 µg/mL is 109%. The activity at 0.2 µg/mL in the data set on HeLa cells (setting [8]) worked out at 53%. In the data set on HeLa cells (setting [8]), the activity at 0.4 µg/mL was found to be 0%.
